Laboratory results: patent publication US11077090B2, “Compounds and compositions and uses thereof” (Sunovion Pharmaceuticals Inc., priority 2016, dated 2021)
Read-outs that look alike come from different tables or passages of the source.

System: compound-treated mice
Experiment: Neuropharmacological assay (SmartCube): behavioral activity signature and minimal effective dose
Format: in vivo
Conditions: for minimal effective dose: Mus musculus, ip; for AD: ADHD (probability of activity signature) / AG: analgesic (probability of activity signature) / AX: anxiolytic (probability of activity signature) / CE: cognitive enhancer (probability of activity signature) / DP: anti-depressant (probability of activity signature) / MS: mood stabilizer (probability of activity signature) / PS: anti-psychotic (probability of activity signature) / SD: sedative hypnotic (probability of activity signature) / UN: uncharacterized CNS activity (probability of activity signature): i.p. 15 min before test, most efficacious dose(s)
Description: Neurosci. 2011 Sep. 9; 5:103 (doi: 10.3389/fnins.2011.00103) (“Roberds”). As reported in Roberds, because psychiatric diseases generally result from disorders of cell-cell communication or circuitry, intact systems are useful in detecting improvement in disease-relevant endpoints. These endpoints are typically behavioral in nature, often requiring human observation and interpretation. To facilitate testing of multiple compounds for behavioral effects relevant to psychiatric disease, PsychoGenics, Inc. (Tarrytown, N.Y., “PGI”) developed SmartCube™, an automated system in which behaviors of compound-treated mice are captured by digital video and analyzed with computer algorithms. (D. Brunner et al., Drug Discov. Today 2002, 7:S107-S112). PGI Analytical Systems uses data from SmartCube™ to compare the behavioral signature of a test compound to a database of behavioral signatures obtained using a large set of diverse reference compounds. (The composition of the database as well as validation of the method is further described in Roberds). In this way, the neuropharmacological effects of a test compound can be predicted by similarity to major classes of compounds, such as antipsychotics, anxiolytics and antidepressants.
The SmartCube™ system produces an activity signature indicating the probability that the activity of the test compound at the administered dose matches a given class of neuropharmacological agents. (See, e.g., Roberds, FIGS. 2 and 3). The test compound is simultaneously compared against multiple classes of agents; thus, a separate probability is generated for each behavioral effect measured (e.g., anxiolytic activity, analgesic activity, etc.). In the table below, these probabilities are reported for each behavioral effect measured as follows:
where LOQ is the limit of quantification.
Provided compounds were dissolved in a mixture of Pharmasolve™ (N-methyl-2-pyrrolidone), polyethylene glycol and propylene glycol, and were injected i.p. 15 min. before the behavioral test. For each compound, injections were administered at 3 different doses. For each behavioral effect measured, results for the most efficacious dose(s) are presented. In the table below, DP: anti-depressant; AX: anxiolytic; SD: sedative hypnotic; PS: anti-psychotic; MS: mood stabilizer; AD: ADHD; CE: cognitive enhancer; AG: analgesic; UN: uncharacterized CNS activity.
The potency of many of the compounds in the table was also determined in the SmartCube™ system. Test compounds were routinely examined at dose levels of 0.3, 1, 3, 10 and 30 mg per kg (mpk), although the dose range was increased or decreased if necessary to obtain a full dose response curve. A compound's minimal effective dose (MED) is a measure of the compounds potency. The MED was defined as the dose (in mpk) having 50% or more total activity in SmartCube.

[1] = MED = dose having 50% or more total activity, read-out: Potency: minimal effective dose (MED)
[2] = MED = dose having 50% or more total activity, read-out: Potency: minimal effective dose (MED), binned

C[C@@H]1OCc2ccccc2[C@H]1N.Cl (relative stereo) [Example 73, trans-3-methylisochroman-4-amine hydrochloride]
minimal effective dose [1]: < 3 mg/kg | AD: ADHD (probability of activity signature): + (LOQ ≤ + <5%) | AG: analgesic (probability of activity signature): ++ (5% ≤ ++ <25%) | AX: anxiolytic (probability of activity signature): +++ (25% ≤ +++ <50%) | CE: cognitive enhancer (probability of activity signature): ++ (5% ≤ ++ <25%) | DP: anti-depressant (probability of activity signature): ++ (5% ≤ ++ <25%) | MS: mood stabilizer (probability of activity signature): + (LOQ ≤ + <5%) | PS: anti-psychotic (probability of activity signature): ++ (5% ≤ ++ <25%) | SD: sedative hypnotic (probability of activity signature): + (LOQ ≤ + <5%) | UN: uncharacterized CNS activity (probability of activity signature): +++ (25% ≤ +++ <50%)

Cc1cccc2c1[C@H](N)CO[C@H]2C [Example 227]
minimal effective dose [2]: 3 to 10 mg/kg | AD: ADHD (probability of activity signature): + (LOQ ≤ + <5%) | AG: analgesic (probability of activity signature): ++ (5% ≤ ++ <25%) | AX: anxiolytic (probability of activity signature): ++ (5% ≤ ++ <25%) | CE: cognitive enhancer (probability of activity signature): + (LOQ ≤ + <5%) | DP: anti-depressant (probability of activity signature): + (LOQ ≤ + <5%) | MS: mood stabilizer (probability of activity signature): + (LOQ ≤ + <5%) | PS: anti-psychotic (probability of activity signature): ++ (5% ≤ ++ <25%) | SD: sedative hypnotic (probability of activity signature): + (LOQ ≤ + <5%) | UN: uncharacterized CNS activity (probability of activity signature): ++++ (50% ≤ ++++)

Cc1ccc2c(c1)[C@H](C)OC[C@H]2N [Example 222]
minimal effective dose [2]: 3 to 10 mg/kg | AD: ADHD (probability of activity signature): + (LOQ ≤ + <5%) | AG: analgesic (probability of activity signature): + (LOQ ≤ + <5%) | AX: anxiolytic (probability of activity signature): ++ (5% ≤ ++ <25%) | CE: cognitive enhancer (probability of activity signature): + (LOQ ≤ + <5%) | DP: anti-depressant (probability of activity signature): + (LOQ ≤ + <5%) | MS: mood stabilizer (probability of activity signature): + (LOQ ≤ + <5%) | PS: anti-psychotic (probability of activity signature): + (LOQ ≤ + <5%) | SD: sedative hypnotic (probability of activity signature): + (LOQ ≤ + <5%) | UN: uncharacterized CNS activity (probability of activity signature): ++++ (50% ≤ ++++)

Cc1ccc(Cl)c2c1[C@H](N)COC2 (single isomer, unassigned) [Example 175]
minimal effective dose [2]: < 3 mg/kg | AD: ADHD (probability of activity signature): + (LOQ ≤ + <5%) | AG: analgesic (probability of activity signature): ++ (5% ≤ ++ <25%) | AX: anxiolytic (probability of activity signature): ++ (5% ≤ ++ <25%) | CE: cognitive enhancer (probability of activity signature): ++ (5% ≤ ++ <25%) | DP: anti-depressant (probability of activity signature): ++ (5% ≤ ++ <25%) | MS: mood stabilizer (probability of activity signature): + (LOQ ≤ + <5%) | PS: anti-psychotic (probability of activity signature): ++ (5% ≤ ++ <25%) | SD: sedative hypnotic (probability of activity signature): + (LOQ ≤ + <5%) | UN: uncharacterized CNS activity (probability of activity signature): ++++ (50% ≤ ++++)

C[C@H]1OCc2ccc(F)cc2[C@@H]1N.Cl [Example 89]
minimal effective dose [1]: < 3 mg/kg | AD: ADHD (probability of activity signature): + (LOQ ≤ + <5%) | AG: analgesic (probability of activity signature): ++ (5% ≤ ++ <25%) | AX: anxiolytic (probability of activity signature): ++ (5% ≤ ++ <25%) | CE: cognitive enhancer (probability of activity signature): ++ (5% ≤ ++ <25%) | DP: anti-depressant (probability of activity signature): + (LOQ ≤ + <5%) | MS: mood stabilizer (probability of activity signature): + (LOQ ≤ + <5%) | PS: anti-psychotic (probability of activity signature): ++ (5% ≤ ++ <25%) | SD: sedative hypnotic (probability of activity signature): ++ (5% ≤ ++ <25%) | UN: uncharacterized CNS activity (probability of activity signature): ++++ (50% ≤ ++++)

Cc1ccc2c(c1)[C@H](N)[C@@H](C(C)C)OC2 [Example 210]
minimal effective dose [2]: 3 to 10 mg/kg | AD: ADHD (probability of activity signature): + (LOQ ≤ + <5%) | AG: analgesic (probability of activity signature): ++ (5% ≤ ++ <25%) | AX: anxiolytic (probability of activity signature): ++ (5% ≤ ++ <25%) | CE: cognitive enhancer (probability of activity signature): ++ (5% ≤ ++ <25%) | DP: anti-depressant (probability of activity signature): + (LOQ ≤ + <5%) | MS: mood stabilizer (probability of activity signature): + (LOQ ≤ + <5%) | PS: anti-psychotic (probability of activity signature): + (LOQ ≤ + <5%) | SD: sedative hypnotic (probability of activity signature): + (LOQ ≤ + <5%) | UN: uncharacterized CNS activity (probability of activity signature): ++++ (50% ≤ ++++)

C[C@@H]1OCc2c(F)cccc2[C@@H]1N.Cl [Example 215]
minimal effective dose [2]: 3 to 10 mg/kg | AD: ADHD (probability of activity signature): + (LOQ ≤ + <5%) | AG: analgesic (probability of activity signature): ++ (5% ≤ ++ <25%) | AX: anxiolytic (probability of activity signature): +++ (25% ≤ +++ <50%) | CE: cognitive enhancer (probability of activity signature): ++ (5% ≤ ++ <25%) | DP: anti-depressant (probability of activity signature): ++ (5% ≤ ++ <25%) | MS: mood stabilizer (probability of activity signature): + (LOQ ≤ + <5%) | PS: anti-psychotic (probability of activity signature): ++ (5% ≤ ++ <25%) | SD: sedative hypnotic (probability of activity signature): ++ (5% ≤ ++ <25%) | UN: uncharacterized CNS activity (probability of activity signature): ++++ (50% ≤ ++++)

Cl.NC1COCc2ccc3c(c21)C1CCC3C1 (stereo not drawn) [Example 51, 2,4,7,8,9,10-Hexahydro-1H-7,10-methanobenzo[f]isochromen-1-amine hydrochloride]
minimal effective dose [1]: 3 to 10 mg/kg | AD: ADHD (probability of activity signature): + (LOQ ≤ + <5%) | AG: analgesic (probability of activity signature): ++ (5% ≤ ++ <25%) | CE: cognitive enhancer (probability of activity signature): ++ (5% ≤ ++ <25%) | MS: mood stabilizer (probability of activity signature): + (LOQ ≤ + <5%) | AX: anxiolytic (probability of activity signature) (hydrochloride): ++ (5% ≤ ++ <25%) | DP: anti-depressant (probability of activity signature) (hydrochloride): ++ (5% ≤ ++ <25%) | PS: anti-psychotic (probability of activity signature) (hydrochloride): ++ (5% ≤ ++ <25%) | SD: sedative hypnotic (probability of activity signature) (hydrochloride): + (LOQ ≤ + <5%) | UN: uncharacterized CNS activity (probability of activity signature) (hydrochloride): ++++ (50% ≤ ++++)

Cl.NC1COCc2ccc3c(c21)C1CCC3C1 (single isomer, unassigned) [Example 164]
Potency: minimal effective dose (MED), binned (MED = dose having 50% or more total activity): B (>3 to 10 mpk) | AD: ADHD (probability of activity signature): + (LOQ ≤ + <5%) | AG: analgesic (probability of activity signature): ++ (5% ≤ ++ <25%) | AX: anxiolytic (probability of activity signature): +++ (25% ≤ +++ <50%) | CE: cognitive enhancer (probability of activity signature): ++ (5% ≤ ++ <25%) | DP: anti-depressant (probability of activity signature): + (LOQ ≤ + <5%) | MS: mood stabilizer (probability of activity signature): + (LOQ ≤ + <5%) | PS: anti-psychotic (probability of activity signature): ++ (5% ≤ ++ <25%) | SD: sedative hypnotic (probability of activity signature): ++ (5% ≤ ++ <25%) | UN: uncharacterized CNS activity (probability of activity signature): +++ (25% ≤ +++ <50%)

Cc1ccc(C)c2c1COC[C@@H]2N (single isomer, unassigned) [Example 166]
minimal effective dose [2]: 3 to 10 mg/kg | AD: ADHD (probability of activity signature): + (LOQ ≤ + <5%) | AG: analgesic (probability of activity signature): + (LOQ ≤ + <5%) | AX: anxiolytic (probability of activity signature): ++ (5% ≤ ++ <25%) | CE: cognitive enhancer (probability of activity signature): ++ (5% ≤ ++ <25%) | DP: anti-depressant (probability of activity signature): + (LOQ ≤ + <5%) | MS: mood stabilizer (probability of activity signature): + (LOQ ≤ + <5%) | PS: anti-psychotic (probability of activity signature): ++ (5% ≤ ++ <25%) | SD: sedative hypnotic (probability of activity signature): ++ (5% ≤ ++ <25%) | UN: uncharacterized CNS activity (probability of activity signature): ++++ (50% ≤ ++++)

Cc1ccc2c(c1)[C@H](N)CO[C@@H]2C.Cl [Example 106]
minimal effective dose [1]: 3 to 10 mg/kg | AD: ADHD (probability of activity signature): + (LOQ ≤ + <5%) | AG: analgesic (probability of activity signature): + (LOQ ≤ + <5%) | AX: anxiolytic (probability of activity signature): ++ (5% ≤ ++ <25%) | CE: cognitive enhancer (probability of activity signature): ++ (5% ≤ ++ <25%) | DP: anti-depressant (probability of activity signature): + (LOQ ≤ + <5%) | MS: mood stabilizer (probability of activity signature): + (LOQ ≤ + <5%) | PS: anti-psychotic (probability of activity signature): ++ (5% ≤ ++ <25%) | SD: sedative hypnotic (probability of activity signature): ++ (5% ≤ ++ <25%) | UN: uncharacterized CNS activity (probability of activity signature): ++++ (50% ≤ ++++)

Cc1cccc2c1COC[C@H]2N (single isomer, unassigned) [Example 129]
minimal effective dose [1]: 3 to 10 mg/kg | AD: ADHD (probability of activity signature): + (LOQ ≤ + <5%) | AG: analgesic (probability of activity signature): ++ (5% ≤ ++ <25%) | AX: anxiolytic (probability of activity signature): +++ (25% ≤ +++ <50%) | CE: cognitive enhancer (probability of activity signature): ++ (5% ≤ ++ <25%) | DP: anti-depressant (probability of activity signature): ++ (5% ≤ ++ <25%) | MS: mood stabilizer (probability of activity signature): + (LOQ ≤ + <5%) | PS: anti-psychotic (probability of activity signature): ++ (5% ≤ ++ <25%) | SD: sedative hypnotic (probability of activity signature): ++ (5% ≤ ++ <25%) | UN: uncharacterized CNS activity (probability of activity signature): +++ (25% ≤ +++ <50%)
